The text below walks through data of patent US20250000801A1, “DAROLUTAMIDE PHARMACEUTICAL COMPOSITION, PREPARATION METHOD THEREFOR AND USE THEREOF” (Sinotherapeutics Inc., priority 2021, published 2025).

The conditions of data set [1]: cited from earlier work.
The subject of data set [2] is non-metastatic castration-resistant prostate cancer (nmCRPC). The conditions noted are these: Phase III, cited from earlier work.
Data set [3] in a line: Determination of dissolution, USP II method (paddle method). Type of data set: physicochemical. The settings on record: phosphate buffer pH 6.8, 1000 ml, 75 rpm. How it is done:
In the following examples, the dissolution of the formulation is determined using the USP II method (paddle method) in the US Pharmacopoeia, with specific parameters as follows.
According to the above procedures, the dissolutions of Darolutamide in phosphate buffer, pH 6.8 were determined and the results were shown in Table 9.

The conditions of data set [4]: cited from earlier work. This is another data set of the same source.
Data set [5] in a line: physchem. The settings on record: 37.2 °C, pH 6.8, aqueous buffer, thermodynamic from solid.
Experimental: About 200 mg of sample is weighted into a 50 ml shaking flask and then 50 ml of medium with pH of 6.8 is added. The shaking flask is mixed well and placed in a shaker. The shaker temperature is set as 37.2° C. and the rotation speed is set as 50 rpm. The sample is taken at 4 hours and 0.45 μM filter membrane is used for filtration to collect filtrate. High-performance liquid chromatography is used for determination with wavelength at 286 nm.
[6] abbreviates: single dose pharmacokinetic study.

Converted amounts (≈) assume the structure as drawn. Read-outs that look alike come from different tables or passages of the source.

Consider `CC(O)c1cc(C(=O)N[C@@H](C)Cn2ccc(-c3ccc(C#N)c(Cl)c3)n2)n[nH]1` (stereo partly drawn) [Darolutamide, N-[(1S)-2-[3-(3-chloro-4-cyanophenyl)-1H-pyrazol-1-yl]-1-methylethyl]-5-(1-hydroxyethyl)-1H-pyrazole-3-carboxamide], for which the BCS classification entry in data set [1] (low solubility and high permeability) was “BCS Class II”. Besides, the “solubility in aqueous media” value in data set [1] (pH 1-6.8) is 14 to 23 µg/mL. Also, the “reduction of the risk of disease metastasis or death” value in data set [2] (Darolutamide combined with ADT vs placebo combined with ADT) is 59%. Besides, the “median metastasis free survival (MFS)” value in data set [2] (Darolutamide combined with ADT) is 40.4 months. Also, the Dissolution in data set [3] (5 min) is 7%; in data set [3] (15 min) it was 10%; in data set [3] (30 min), 9%; in data set [3] (45 min) it was 12%. Moreover, the bioavailability result in data set [4] (300 mg, fasting state) is listed as “about 30%”. In addition, the “coefficient of variation (CV %) of AUC(0-4)” value is 69.6% in data set [4] (administration dosage of 300 mg) and 41.4% in data set [4] (administration dosage of 600 mg). Besides, the “increase of AUC(0-4) in feeding state” value in data set [4] (after administration of 300 mg or 600 mg) is listed as 2.5 fold. Further, the “increase of bioavailability in feeding state” value in data set [4] (single dose administration of 300 mg) is 2.5 fold; in data set [4] (single dose administration of 600 mg), 2.8 fold. Moreover, the end half-life in data set [4] (setting [6]) is 10 to 15 h. The “median Tmax” value in data set [4] (setting [6]) was 3 to 6 h. In data set [5], this molecule displayed a solubility at 4 h of 24.9 µg/mL (≈ 62.4 µM).
